Test results reported in US10165776B2, “Substituted pyrazolylpyrazole derivative and use of same as herbicide” (KYOYU AGRI CO., LTD., priority 2015, dated 2019).

Key:
Assay type in all cases: in vivo
Echinochloa crus-galli = test: Paddy herbicidal activity test; details: irrigated pot, treated at 3.5 leaf stage of Echinochloa crus-galli, 30 days at 30° C.
Method: (§1) Rice paddy soil was filled into a 1/10000 are pot followed by the addition of suitable amounts of water and chemical fertilizer, kneading, seeding with Echinochloa crus-galli, Monochoria vaginalis and Scirpus juncoides and maintaining in an irrigated state at a water depth of 3 cm. Wettable powders of Target Compound (I) shown in Table 1 prepared in compliance with the preparation examples were diluted with a suitable amount of water, rice plants in the 2.0 leaf stage were transplanted during 3.5 leaf stage of Echinochloa crus-galli, and treated by dropping in chemical in the prescribed amount per 10 are using a pipette. After treating for 30 days in a glass greenhouse at an average atmospheric temperature of 30° C., the herbicidal efficacy thereof was investigated. Evaluation of herbicidal efficacy was carried out by comparing growth inhibition rate (%) with an untreated group, while evaluation of phytotoxicity was carried out by comparing growth inhibition rate (%) with the state of a complete eradication group, and were evaluated at 11 levels indicated below.

Monochoria vaginalis = test: Paddy herbicidal activity test; details: irrigated pot, treated at 3.5 leaf stage of Echinochloa crus-galli, 30 days at 30° C.
Method: as §1

Scirpus juncoides = test: Paddy herbicidal activity test; details: irrigated pot, treated at 3.5 leaf stage of Echinochloa crus-galli, 30 days at 30° C.
Method: as §1

Oryza sativa = test: Paddy herbicidal activity test, phytotoxicity to transplanted rice; details: rice transplanted at 2.0 leaf stage, 30 days at 30° C.
Method: as §1

Amaranthus retroflexus [1] = test: Farming soil treatment test; details: soil surface spray prior to weed growth, 30 days at 30° C.
Method: (§2) Field soil was filled into a 1/6000 are pot followed by seeding with Digitaria ciliaris, Chenopodium album and Amaranthus retroflexus and covering with soil. Wettable powders of compounds of formula (I) shown in Table 1 prepared in compliance with the preparation examples were diluted with water to the prescribed amount of chemical and uniformly sprayed onto each soil surface layer using 100 liters of sprayed water per 10 are prior to weed growth following seeding. After treating for 30 days in a glass greenhouse at an average atmospheric temperature of 30° C., the herbicidal efficacy thereof was investigated. Evaluation of herbicidal efficacy was carried out in the same manner as the above-mentioned Test Example 1.

Chenopodium album [2] = test: Farming soil treatment test; details: soil surface spray prior to weed growth, 30 days at 30° C.
Method: as §2

Digitaria ciliaris [3] = test: Farming soil treatment test; details: soil surface spray prior to weed growth, 30 days at 30° C.
Method: as §2

Amaranthus retroflexus [4] = test: Weed foliar treatment test (Test 3, 1.0 to 2.0 leaf stage); details: foliar spray at 1.0 to 2.0 leaf stage of Digitaria ciliaris, 3 weeks at 25° C.
Method: (§3) Soil was filled into a 1/6000 are pot followed by seeding with Digitaria ciliaris, Chenopodium album and Amaranthus retroflexus, covering with soil, and cultivating in a glass greenhouse at an average atmospheric temperature of 25° C. Wettable powders of Target Compound (I) shown in Table 1 prepared in compliance with the preparation examples were diluted with water to the prescribed amount of chemical and uniformly sprayed onto the weeds using 150 liters of sprayed water per 10 are when Digitaria ciliaris had grown to the 1.0 to 2.0 leaf stage. After treating for 3 weeks in a glass greenhouse at an average atmospheric temperature of 25° C., the herbicidal efficacy thereof was investigated. Evaluation of herbicidal efficacy was carried out in the same manner as the above-mentioned Test Example 1.

Chenopodium album [5] = test: as above; details: foliar spray at 1.0 to 2.0 leaf stage of Digitaria ciliaris, 3 weeks at 25° C.
Method: as §3

Digitaria ciliaris [6] = test: as above; details: foliar spray at 1.0 to 2.0 leaf stage of Digitaria ciliaris, 3 weeks at 25° C.
Method: as §3

Digitaria ciliaris [7] = test: Weed foliar treatment test (Test 4, 4.0 to 5.0 leaf stage); details: 10 g a.i./10 a; foliar spray at 4.0 to 5.0 leaf stage of Digitaria ciliaris (plant height 10 cm to 15 cm); 20 days at 25° C.
Method: (§4) Field soil was filled into a 1/4500 are pot followed by seeding with Digitaria ciliaris and Galinsoga parviflora, covering with soil and cultivating in a glass greenhouse at an average atmospheric temperature of 25° C. Wettable powders of Target Compound (I) shown in Table 1 prepared in compliance with the preparation examples were diluted with water to the prescribed amount of chemical and uniformly sprayed onto the weeds using 100 liters of sprayed water per 10 are when Digitaria ciliaris had grown to the 4.0 to 5.0 leaf stage (plant height: 10 cm to 15 cm). After treating for 20 days in a glass greenhouse at an average atmospheric temperature of 25° C., the herbicidal efficacy thereof was investigated. Evaluation of herbicidal efficacy was carried out in the same manner as the above-mentioned Test Example 1.

Galinsoga parviflora = test: as above; details: 10 g a.i./10 a; foliar spray at 4.0 to 5.0 leaf stage of Digitaria ciliaris (plant height 10 cm to 15 cm); 20 days at 25° C.
Method: as §4

SMILES	herbicidal efficacy, Echinochloa crus-galli (Echinochloa crus-galli; 1 g a.i./10 a)	herbicidal efficacy, Echinochloa crus-galli (Echinochloa crus-galli; 5 g a.i./10 a)	herbicidal efficacy, Monochoria vaginalis (Monochoria vaginalis; 1 g a.i./10 a)	herbicidal efficacy, Monochoria vaginalis (Monochoria vaginalis; 5 g a.i./10 a)	herbicidal efficacy, Scirpus juncoides (Scirpus juncoides; 1 g a.i./10 a)	herbicidal efficacy, Scirpus juncoides (Scirpus juncoides; 5 g a.i./10 a)	phytotoxicity, Oryza sativa (Oryza sativa; 1 g a.i./10 a)	phytotoxicity, Oryza sativa (Oryza sativa; 5 g a.i./10 a)	herbicidal efficacy, Amaranthus retroflexus (Amaranthus retroflexus [1]; 5 g a.i./10 a)	herbicidal efficacy, Amaranthus retroflexus (Amaranthus retroflexus [1]; 10 g a.i./10 a)	herbicidal efficacy, Chenopodium album (Chenopodium album [2]; 5 g a.i./10 a)	herbicidal efficacy, Chenopodium album (Chenopodium album [2]; 10 g a.i./10 a)	herbicidal efficacy, Digitaria ciliaris (Digitaria ciliaris [3]; 5 g a.i./10 a)	herbicidal efficacy, Digitaria ciliaris (Digitaria ciliaris [3]; 10 g a.i./10 a)	herbicidal efficacy, Amaranthus retroflexus (Amaranthus retroflexus [4]; 5 g a.i./10 a)	herbicidal efficacy, Amaranthus retroflexus (Amaranthus retroflexus [4]; 10 g a.i./10 a)	herbicidal efficacy, Chenopodium album (Chenopodium album [5]; 5 g a.i./10 a)	herbicidal efficacy, Chenopodium album (Chenopodium album [5]; 10 g a.i./10 a)	herbicidal efficacy, Digitaria ciliaris (Digitaria ciliaris [6]; 5 g a.i./10 a)	herbicidal efficacy, Digitaria ciliaris (Digitaria ciliaris [6]; 10 g a.i./10 a)	also measured
Cc1cccc(CC(=O)Nc2c(C#N)cnn2-c2nn3c(c2Cl)CCCC3)c1 [Compound 9]	9 (9: 90% to less than 100%)	9 (9: 90% to less than 100%)	9 (9: 90% to less than 100%)	10 (10: 100%)	9 (9: 90% to less than 100%)	9 (9: 90% to less than 100%)	0 (0 (exponent): 0% to less than 10% (growth inhibition rate))	0 (0 (exponent): 0% to less than 10% (growth inhibition rate))	9 (9: 90% to less than 100%)	10 (10: 100%)	9 (9: 90% to less than 100%)	10 (10: 100%)	9 (9: 90% to less than 100%)	9 (9: 90% to less than 100%)	10 (10: 100%)	10 (10: 100%)	10 (10: 100%)	10 (10: 100%)	10 (10: 100%)	10 (10: 100%)	herbicidal efficacy, Digitaria ciliaris (Digitaria ciliaris [7]): 10 (10: 100%); herbicidal efficacy, Galinsoga parviflora (Galinsoga parviflora): 10 (10: 100%)
N#Cc1cnn(-c2nn3c(c2Cl)CCCC3)c1NC(=O)Cc1cccc(F)c1 [Compound 11]	9 (9: 90% to less than 100%)	10 (10: 100%)	9 (9: 90% to less than 100%)	9 (9: 90% to less than 100%)	9 (9: 90% to less than 100%)	10 (10: 100%)	0 (0 (exponent): 0% to less than 10% (growth inhibition rate))	1 (1: 10% to less than 20%)	9 (9: 90% to less than 100%)	9 (9: 90% to less than 100%)	10 (10: 100%)	10 (10: 100%)	9 (9: 90% to less than 100%)	10 (10: 100%)	10 (10: 100%)	10 (10: 100%)	10 (10: 100%)	10 (10: 100%)	10 (10: 100%)	10 (10: 100%)	herbicidal efficacy, Digitaria ciliaris (Digitaria ciliaris [7]): 10 (10: 100%); herbicidal efficacy, Galinsoga parviflora (Galinsoga parviflora): 10 (10: 100%)
N#Cc1cnn(-c2nn3c(c2Cl)CCCC3)c1NC(=O)Cc1ccc(F)cc1 [Compound 15]	10 (10: 100%)	10 (10: 100%)	10 (10: 100%)	10 (10: 100%)	9 (9: 90% to less than 100%)	10 (10: 100%)	1 (1: 10% to less than 20%)	1 (1: 10% to less than 20%)	10 (10: 100%)	10 (10: 100%)	10 (10: 100%)	10 (10: 100%)	9 (9: 90% to less than 100%)	10 (10: 100%)	10 (10: 100%)	10 (10: 100%)	10 (10: 100%)	10 (10: 100%)	10 (10: 100%)	10 (10: 100%)	herbicidal efficacy, Digitaria ciliaris (Digitaria ciliaris [7]): 10 (10: 100%); herbicidal efficacy, Galinsoga parviflora (Galinsoga parviflora): 10 (10: 100%)
N#Cc1cnn(-c2nn3c(c2Cl)CCCC3)c1NC(=O)CCc1ccccc1 [Compound 19]	9 (9: 90% to less than 100%)	10 (10: 100%)	10 (10: 100%)	10 (10: 100%)	10 (10: 100%)	10 (10: 100%)	0 (0 (exponent): 0% to less than 10% (growth inhibition rate))	1 (1: 10% to less than 20%)	10 (10: 100%)	10 (10: 100%)	10 (10: 100%)	10 (10: 100%)	10 (10: 100%)	10 (10: 100%)	10 (10: 100%)	10 (10: 100%)	10 (10: 100%)	10 (10: 100%)	10 (10: 100%)	10 (10: 100%)	herbicidal efficacy, Digitaria ciliaris (Digitaria ciliaris [7]): 10 (10: 100%); herbicidal efficacy, Galinsoga parviflora (Galinsoga parviflora): 10 (10: 100%)
O=C(Nc1c([N+](=O)[O-])cnn1-c1nn2c(c1Cl)CCCC2)c1ccccc1 [Control agent 2.19, reference compound]	3 (3: 30% to less than 40%)	4 (4: 40% to less than 50%)	1 (1: 10% to less than 20%)	1 (1: 10% to less than 20%)	1 (1: 10% to less than 20%)	2 (2: 20% to less than 30%)	1 (1: 10% to less than 20%)	1 (1: 10% to less than 20%)	1 (1: 10% to less than 20%)	3 (3: 30% to less than 40%)	3 (3: 30% to less than 40%)	4 (4: 40% to less than 50%)	0 (0 (exponent): 0% to less than 10% (growth inhibition rate))	2 (2: 20% to less than 30%)	4 (4: 40% to less than 50%)	4 (4: 40% to less than 50%)	4 (4: 40% to less than 50%)	5 (5: 50% to less than 60%)	1 (1: 10% to less than 20%)	2 (2: 20% to less than 30%)	herbicidal efficacy, Digitaria ciliaris (Digitaria ciliaris [7]): 1 (1: 10% to less than 20%); herbicidal efficacy, Galinsoga parviflora (Galinsoga parviflora): 3 (3: 30% to less than 40%)
